From publication PMC3024946, “Hydroxyproline-containing collagen analogs trigger the release and activation of collagen-sequestered proMMP-2 by competition with prodomain-derived peptide P33-42” (Fibrogenesis & Tissue Repair, 2011)
Entries after “also recorded” stand apart in the source; their conditions may differ.

Tests used:
proMMP-2 / CI [1] = biological target: T1, proMMP-2 / CI (Homo sapiens, UniProt P08253); experiment: SPR, competition of proMMP-2 binding to CI, MMP activity buffer with Ro 28-2653; conditions: for competition with proMMP-2 binding to CI: SPR, MMP activity buffer with Ro 28-2653; for Kd for binding to CI in the presence of 10-fold molar excess of competitor: proMMP-2 100 nM, MMP activity buffer, 1 μM Ro 28-2653, 25°C, mean ± SD, at least three experiments
T1 construct: prodomain-containing proMMP-2 or proMMP-9; purchased Invitek
T1 sequence (P08253 30-660 limits assumed): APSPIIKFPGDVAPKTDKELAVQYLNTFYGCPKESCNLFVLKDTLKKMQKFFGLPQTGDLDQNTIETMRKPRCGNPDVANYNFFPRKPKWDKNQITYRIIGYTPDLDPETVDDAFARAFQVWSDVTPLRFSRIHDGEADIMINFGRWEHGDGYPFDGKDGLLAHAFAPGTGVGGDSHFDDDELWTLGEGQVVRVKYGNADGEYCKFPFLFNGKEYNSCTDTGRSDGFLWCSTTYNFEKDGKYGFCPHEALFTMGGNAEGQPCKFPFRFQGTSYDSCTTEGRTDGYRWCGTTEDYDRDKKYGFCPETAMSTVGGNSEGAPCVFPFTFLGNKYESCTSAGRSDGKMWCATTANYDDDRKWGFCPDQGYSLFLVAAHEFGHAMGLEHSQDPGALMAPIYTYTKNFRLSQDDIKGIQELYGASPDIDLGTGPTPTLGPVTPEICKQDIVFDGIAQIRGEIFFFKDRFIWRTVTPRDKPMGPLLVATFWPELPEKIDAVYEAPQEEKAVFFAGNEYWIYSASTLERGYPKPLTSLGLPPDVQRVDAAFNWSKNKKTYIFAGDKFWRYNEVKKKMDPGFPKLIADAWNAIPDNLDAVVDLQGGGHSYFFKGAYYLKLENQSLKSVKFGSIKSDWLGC
Description: (§1) Sensor chip preparations and SPR measurements were performed using a BiacoreX device and the Bia-evaluation software (version 3.2; Biacore, Uppsala, Sweden). The pepsin-resistant triple-helical part of human fibrillar CI (100 μg/ml) in 10 mM acetate coupling buffer, pH 4.8, was immobilized to a dextran matrix-sensor chip at a flow rate of 5 μl/min, resulting in 5,500 resonance units from CI covalently linked via its primary amino groups. The control flow cell was prepared using the coupling buffer without CI. Surfaces were activated and blocked as described previously. Immediately after thawing, pro- and actMMP-2 and pro- and actMMP-9 were diluted to 100 to 250 nM in MMP activity buffer or in PBS and 0.05% (vol/vol) Tween 20. For SPR measurements, flow rates were 10 μl/min at 25°C, and equilibrium was typically reached after 30 to 60 s. The effects of (GPO)10, GAP, (POG)5, (GPP)10 and P33-42 on MMP-2 and MMP-9 binding to CI and their enzymatic activity were determined by adding the binding competitors to the (pro- and act)MMP-2 and MMP-9 solution in 10- to 150-fold molar excesses. Effects independent of MMP-2 and MMP-9 activity were monitored in the presence of Ro 28-2653 (1 μM) during SPR analysis. The gelatinase inhibitor Ro 28-2653 was a generous gift from H.-W. Krell (Roche, Grenzach-Wyhlen, Germany). Sensor surfaces were regenerated with 10 mM glycine, pH 2.3, for 1 min between runs, and sensor chips were used up to 25 times. Kinetic parameters were analyzed using the 1:1 binding model with drifting baseline and subtraction of the control flow cell binding from sensorgrams obtained with immobilized CI. Binding constants (Kd) were calculated from the association (ka) and dissociation rates (kd) obtained from individual binding curves at different concentrations. Individual drifts of the resonance signal were fitted locally, and χ^2 values of 0.2% to 1.0% of the maximum resonance value were considered good fits.

ProMMP-2 = experiment: DQ-gelatine degradation assay with MMP-2; assay type: biochemical, human; conditions: 5 h at 25°C
Description: Enzymatic activities of MMPs were studied spectrofluorimetrically by cleavage of fluorogenic substrates in MMP activity buffer within 2 to 5 h. For gelatinases 800 nM MCA-Pro-Leu-Gly-Leu-Dnp-Dap-Ala-Arg-NH2 (λex/em 328/393 nm; Bachem, Bubendorf, Switzerland) or 10 μg/ml DQ-gelatine were used, according to the method described by Knight et al. for collagenases 800 nM MCA-Pro-Cha-Gly-Nva-His-Ala-Dpa-NH2 (λex/em 280/360 nm; Anaspec, San José, CA, USA). In some experiments, proMMP-2 was fully activated in the presence of 1 mM APMA prior to the kinetic measurements. A quantity of 50 ng pro- or actMMP-2 alone or mixed with 10- to 150-fold molar excesses of (GPO)10, GAP, P33-42 or mixtures of (GPO)10 and P33-42, were added to CI-coated, BSA-coated (1 μg/well both) or uncoated wells containing 150 μl of the respective substrate solution. The peptide P33-42 was purchased from the Institute of Biochemistry (Humboldt-University, Berlin, Germany). The influence of CI on MMP-2 enzymatic activity against the quenched fluorescent substrate could be excluded. Background subtraction (measurement without MMPs) was applied to all curves. All experiments were performed with a fluorescence microplate reader (Molecular Devices, Sunnyvale, CA, USA) and black 96-well microtiter plates with a clear bottom (Greiner bio-one, Frickenhausen, Germany).

proMMP-2 / CI [2] = biological target: T1, proMMP-2 / CI; experiment: SPR, competition of proMMP-2 binding to CI, nonactivating buffer
Description: as §1, with “Immediately after thawing, pro- and actMMP-2 and pro- and actMMP-9 were diluted to 100 to 250 nM in MMP activity buffer or in PBS and 0.05% (vol/vol) Tween 20. For SPR measurements, flow rates were 10 μl/min at 25°C, and equilibrium was typically reached after 30 to 60 s.” left out, “The gelatinase inhibitor Ro 28-2653 was a generous gift from H.-W. Krell (Roche, Grenzach-Wyhlen, Germany). Sensor surfaces were regenerated with 10 mM glycine, pH 2.3, for 1 min between runs, and sensor chips were used up to 25 times.” left out, “Individual drifts of the resonance signal were fitted locally, and χ^2 values of 0.2% to 1.0% of the maximum resonance value were considered good fits.” left out

actMMP-9 / CI = biological target: T2, actMMP-9 / CI (Homo sapiens, UniProt P14780); experiment: SPR, competition of actMMP-9 binding to CI, nonactivating buffer; conditions: actMMP-9 (100 nM) binding to CI with 10× (GPO)10; PBS, 0.05% Tween 20
T2 construct: purchased Invitek
T2 sequence (P14780 107-707 limits assumed): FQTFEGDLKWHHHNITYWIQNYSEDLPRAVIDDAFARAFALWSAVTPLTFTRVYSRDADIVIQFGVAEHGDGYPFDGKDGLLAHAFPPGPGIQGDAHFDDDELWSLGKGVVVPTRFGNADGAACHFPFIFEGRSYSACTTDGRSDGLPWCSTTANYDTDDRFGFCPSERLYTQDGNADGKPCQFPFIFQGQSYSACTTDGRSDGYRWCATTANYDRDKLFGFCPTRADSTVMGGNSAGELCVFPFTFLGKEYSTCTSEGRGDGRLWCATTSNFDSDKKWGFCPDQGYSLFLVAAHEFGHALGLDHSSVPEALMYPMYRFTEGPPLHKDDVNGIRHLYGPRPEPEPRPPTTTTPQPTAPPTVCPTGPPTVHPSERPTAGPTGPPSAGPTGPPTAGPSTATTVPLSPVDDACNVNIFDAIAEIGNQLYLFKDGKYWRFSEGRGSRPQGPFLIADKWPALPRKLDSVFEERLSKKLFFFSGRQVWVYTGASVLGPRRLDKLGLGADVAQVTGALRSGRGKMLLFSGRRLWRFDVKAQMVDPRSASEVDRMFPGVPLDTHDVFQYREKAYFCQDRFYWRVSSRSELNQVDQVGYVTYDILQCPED
Description: as §1, with “Immediately after thawing, pro- and actMMP-2 and pro- and actMMP-9 were diluted to 100 to 250 nM in MMP activity buffer or in PBS and 0.05% (vol/vol) Tween 20. For SPR measurements, flow rates were 10 μl/min at 25°C, and equilibrium was typically reached after 30 to 60 s.” left out, “The gelatinase inhibitor Ro 28-2653 was a generous gift from H.-W. Krell (Roche, Grenzach-Wyhlen, Germany). Sensor surfaces were regenerated with 10 mM glycine, pH 2.3, for 1 min between runs, and sensor chips were used up to 25 times.” left out, “Individual drifts of the resonance signal were fitted locally, and χ^2 values of 0.2% to 1.0% of the maximum resonance value were considered good fits.” left out

proMMP-2 / CI [3] = biological target: T1, proMMP-2 / CI; experiment: SPR, competition of proMMP-2 binding to CI, MMP activity buffer; conditions: proMMP-2 (25-150 nM), 10-fold molar excess, no inhibitor
Description: as §1, with “Immediately after thawing, pro- and actMMP-2 and pro- and actMMP-9 were diluted to 100 to 250 nM in MMP activity buffer or in PBS and 0.05% (vol/vol) Tween 20. For SPR measurements, flow rates were 10 μl/min at 25°C, and equilibrium was typically reached after 30 to 60 s.” left out, “The gelatinase inhibitor Ro 28-2653 was a generous gift from H.-W. Krell (Roche, Grenzach-Wyhlen, Germany). Sensor surfaces were regenerated with 10 mM glycine, pH 2.3, for 1 min between runs, and sensor chips were used up to 25 times.” left out, “Individual drifts of the resonance signal were fitted locally, and χ^2 values of 0.2% to 1.0% of the maximum resonance value were considered good fits.” left out

Kd for binding to CI in the presence of 10-fold molar excess of competitor (proMMP-2 / CI [1]) [nM] | reduction of affinity / increase in Kd of binding to CI (proMMP-2 / CI [1]; proMMP-2, 10-fold molar excess of competitor) | Off rate (proMMP-2 / CI [2]; proMMP-2 (100 nM) binding to CI with 10× (GPO)10, PBS, 0.05% Tween 20) [s⁻¹] | effect on binding to CI (proMMP-2 / CI [2]; proMMP-2, 10-fold molar excess) | Off rate (actMMP-9 / CI) [s⁻¹] | Substance | competition with proMMP-2 binding to CI (proMMP-2 / CI [1]) | DQ-gelatine cleavage by proMMP-2 (ProMMP-2; 50- to 100-fold molar excesses) | DQ-gelatine cleavage by proMMP-2 (ProMMP-2; 150-fold molar excess) | effect on SPR signal on CI (proMMP-2 / CI [3])
42.1 ± 39.1 | about a sixfold increase |  |  |  | H-Gly-Cys-Pro-(Gly-Pro-Pro)10-Gly-Cys-Pro-Gly-NH2 [(GPP)10, Triple-helical Gly-Pro-Pro (GPP)10, devoid of Hyp] | much less efficient in competing with proMMP-2 binding to CI than the nonhelical (POG)5 |  |  | 
155.5 ± 50.2 |  | 0.37 | only slightly impaired | 0.61 | H-Gly-Cys-Hyp-(Gly-Pro-Hyp)10-Gly-Cys-Hyp-Gly-NH2 [(GPO)10, triple-helical Hyp-containing collagen analog] | comparable to that of (POG)5; also recorded: effectively compete proMMP-2 binding to CI | significantly enhanced | shift from an active MMP-2 to an enzymatically blocked enzyme; also recorded: reduction of MMP-2 gelatinolytic activity | reduction in resonance units below baseline levels
